Active and inactive are the calls of the source. The rule behind the calls is not given here.
Test system: PAMPA artificial membrane permeability, pH 7.4
Assay: passive permeability across artificial membrane, ADME assay, biophysical (AID 624339)
Settings: at 100 µM, stronger effect = higher value

CCOc1ccc(NC(=S)N2CCC(C(O)(c3ccccc3)c3ccccc3)CC2)cc1
permeability Pe: 682 10-6 cm/s

Cc1ccc(S(=O)(=O)NCc2ccc(C(=O)NCCN(Cc3ccccc3)C(C)C)cc2)cc1
permeability Pe: 1480 10-6 cm/s

CCCN(CCC)CCNC(=O)C1CCN(Cc2nc(-c3ccc(Cl)cc3)oc2C)CC1
permeability Pe: 1860 10-6 cm/s

Brc1ccc2c(c1)CN1CCCC1=N2
permeability Pe: 786 10-6 cm/s

CCCc1nc2c(=O)n(C)c(=O)nc-2n(C)n1
permeability Pe: 0 10-6 cm/s (inactive)

Cc1ccc(C)c(NS(=O)(=O)c2cc(C(=O)Nc3ccccc3-c3ccccc3)ccc2Cl)c1
permeability Pe (with 20% ACN): 253 10-6 cm/s

Cc1nc(SCc2nc3ccccc3[nH]2)c2oc3ccccc3c2n1
permeability Pe: 720 10-6 cm/s

CCCc1cc(C(=O)N(C2CCCCC2)C2CCCCC2)no1
permeability Pe: 0.01 10-6 cm/s (inactive)

COc1cccc(-c2nc(-c3ccc(NC(=O)Cc4ccccc4OC)cc3)no2)c1
permeability Pe (with 20% ACN): 863 10-6 cm/s

O=C(COc1ccccc1Br)NCCc1nc2ccccc2[nH]1
permeability Pe: 795 10-6 cm/s

CS(=O)(=O)c1ccc(C(=O)OCC(=O)NC23CC4CC(CC(C4)C2)C3)cc1[N+](=O)[O-]
permeability Pe: 443 10-6 cm/s

Cc1ccc(C)c(OCCn2cc(C(=O)O)c3ccccc32)c1
permeability Pe: 256 10-6 cm/s

CC(=O)c1ccc(N2CCN(S(=O)(=O)c3ccc4c(c3)CC(=O)N4)CC2)cc1
permeability Pe: 194 10-6 cm/s

O=c1oc2c(O)c(O)cc3c(=O)oc4c(O)c(O)cc1c4c23
permeability Pe: 3.1 10-6 cm/s (inactive)

Cc1ccc(NC(=O)CCC(=O)N/N=C/c2ccc([N+](=O)[O-])o2)cc1C
permeability Pe: 37 10-6 cm/s

COc1ccc(S(=O)(=O)n2nc(OC(=O)c3ccccc3)cc2N)cc1
permeability Pe: 459 10-6 cm/s

Cc1ccc(S(=O)(=O)n2c(N)nc3ccccc32)cc1
permeability Pe: 370 10-6 cm/s

COC(=O)c1ccccc1NC(=O)c1ccc(F)cc1
permeability Pe: 629 10-6 cm/s

O=C(c1ccccn1)N(Cc1cccs1)C1(C(=O)NC2CCCCC2)CCCCC1
permeability Pe: 1580 10-6 cm/s

O=C(O)c1ccccc1OCc1ccccc1Br
permeability Pe: 22 10-6 cm/s

COc1nc(-c2ccccc2)nnc1-c1ccccc1
permeability Pe: 1240 10-6 cm/s

Cc1cc(C(=O)CN2C(=O)CCC2=O)c(C)n1Cc1ccccc1
permeability Pe: 250 10-6 cm/s

COc1ccc(S(=O)(=O)N2CCN(S(=O)(=O)c3ccc4c(c3)OCCO4)CC2)cc1
permeability Pe: 562 10-6 cm/s

O=C1C2CC=CCC2C(=O)N1c1n[nH]c(-c2ccccc2)n1 (stereo not drawn)
permeability Pe: 63 10-6 cm/s

NC(=O)C1CCN(c2nc(-c3ccc(Br)cc3)cs2)CC1
permeability Pe: 284 10-6 cm/s

COc1ccccc1N(/N=C1\Sc2ccccc2C1=O)C(C)=O
permeability Pe: 831 10-6 cm/s

CCOc1ccc(-c2nc(-c3ccncc3)no2)cc1OCC
permeability Pe: 1030 10-6 cm/s

O=C(CSc1cccc2cccnc12)N1CCCC1
permeability Pe: 101 10-6 cm/s

COc1ccc(CNCc2cccc3ccccc23)cc1
permeability Pe: 1130 10-6 cm/s

O=C1NCCCc2c1oc1ccc(O)cc21
permeability Pe: 13 10-6 cm/s

Cc1ccccc1N1CCN(c2ncnc3c2cnn3Cc2ccc(Cl)cc2)CC1
permeability Pe (with 20% ACN): 1100 10-6 cm/s

O=c1c2ccccc2[se]n1-c1ccccc1
permeability Pe: 448 10-6 cm/s

O=C(O)CCC(NS(=O)(=O)c1ccc(-c2ccccc2)cc1)C(=O)O (stereo not drawn)
permeability Pe: < 0.4 10-6 cm/s (inactive)

COc1ccc(OC)c(-c2nnc3n2N=C(c2ccc(OC)c(OC)c2)CS3)c1
permeability Pe: 590 10-6 cm/s

Cc1cccc(-n2cnc3cc(C(=O)N4CCCCC4)ccc32)c1
permeability Pe: 748 10-6 cm/s

CN(C)c1oc(-c2ccc(OCc3ccc(Cl)cc3)cc2)nc1C#N
permeability Pe: 208 10-6 cm/s

Cn1nnnc1Sc1ncnc2scc(-c3ccccc3)c12
permeability Pe: 973 10-6 cm/s

O=C(O)c1cccnc1SCCc1ccccc1
permeability Pe: 17 10-6 cm/s

O=C1CCCC2=C1C1(CCCC1)N=C(Nc1nc3ccccc3o1)N2
permeability Pe: 436 10-6 cm/s

C/C=C/Cn1c(SCCCc2ccccc2)nc2c1c(=O)[nH]c(=O)n2C
permeability Pe: 1340 10-6 cm/s

C=CCn1c(SCC(=O)c2ccc(O)c(O)c2)nnc1-c1ccccc1OC
permeability Pe: 88 10-6 cm/s

O=c1[nH]c(SCc2ccc(Cl)cc2)nc2c1CCC2
permeability Pe: 631 10-6 cm/s

COc1ccc(OC)c(S(=O)(=O)Nc2cnc3ccccc3c2)c1
permeability Pe: 706 10-6 cm/s

CC(C)C(=O)NC(c1ccco1)c1ccc2cccnc2c1O (stereo not drawn)
permeability Pe: 286 10-6 cm/s

COc1ccc(N(C(=O)CCl)C(C(=O)NCCc2ccccc2)c2cccs2)cc1Cl (stereo not drawn)
permeability Pe: 568 10-6 cm/s

O=C(CCNS(=O)(=O)c1cccc2nsnc12)N1CCN(c2ccccn2)CC1
permeability Pe: 143 10-6 cm/s

O=c1c(O)c(-c2cc(O)c(O)c(O)c2)oc2cc(O)cc(O)c12
permeability Pe: 1.7 10-6 cm/s (inactive)

CN(C)c1nc(N)nc(CSc2nnnn2-c2cccc3ccccc23)n1
permeability Pe: 268 10-6 cm/s

CCCOc1ccc(-c2nc(OC)c3ccccc3n2)cc1
permeability Pe: 26 10-6 cm/s

CCc1oc2ccccc2c1C(=O)c1cc(Br)c(O)c(Br)c1
permeability Pe: 71 10-6 cm/s

Cc1ccc(N2CCN(S(=O)(=O)N3CCCCC3)CC2)c(C)c1
permeability Pe: 263 10-6 cm/s

O=[N+]([O-])c1ccc(CN2CCOCCOCCN(Cc3ccc([N+](=O)[O-])cc3)CCOCC2)cc1
permeability Pe: 1080 10-6 cm/s

c1ccc(CC2CCN(c3ncnc4sccc34)CC2)cc1
permeability Pe: 1020 10-6 cm/s

Cc1cc(-c2nnc3n2CCCCC3)c(C)n1-c1ccccc1
permeability Pe: 393 10-6 cm/s

CSc1nc(-c2ccc(C)cc2)nc(C(Cl)Cl)n1
permeability Pe (with 20% ACN): 154 10-6 cm/s

CN(C)C1=C(Cl)C(=O)N(c2ccc(Cl)c(Cl)c2)C1=O
permeability Pe (with 20% ACN): 381 10-6 cm/s

CCCN1CNc2c(c(=O)[nH]c(=S)n2CCc2ccc(OC)c(OC)c2)C1
permeability Pe: 75 10-6 cm/s

N#C/C(=C\c1ccc([N+](=O)[O-])o1)c1nc2ccccc2[nH]1
permeability Pe: 145 10-6 cm/s

Cc1ccnc(NC(=O)CCCOc2cc(=O)n(C)c3ccccc23)c1
permeability Pe: 510 10-6 cm/s

Brc1cc2c(cc1C1Nc3ccccc3C3C=CCC31)OCO2 (stereo not drawn)
permeability Pe: 37 10-6 cm/s

O=c1[nH]c2c(s1)C(c1cccnc1)C1C3CCC(C3)C1S2 (stereo not drawn)
permeability Pe: 830 10-6 cm/s

Cc1ccc(NS(=O)(=O)c2ccc3c(c2)CCC(=O)N3)cc1C
permeability Pe: 622 10-6 cm/s

CCOC(=O)C(C)Oc1cccc2c(=O)n(CC(=O)Nc3ccc4c(c3)OCCO4)ccc12 (stereo not drawn)
permeability Pe: 441 10-6 cm/s

N#Cc1ccccc1CSc1nc2ncc(Br)cc2[nH]1
permeability Pe: 144 10-6 cm/s

c1ccc(-c2nnc(N3CCOCC3)nc2-c2ccccc2)cc1
permeability Pe: 1490 10-6 cm/s

COc1ccc(CSc2nc(C)cc(=O)[nH]2)cc1
permeability Pe: 165 10-6 cm/s

O=C(O)c1ccc(N2C(=O)/C(=C/c3ccc(-c4ccc([N+](=O)[O-])cc4)o3)C=C2c2ccccc2)cc1
permeability Pe: < 0.8 10-6 cm/s (inactive)

CCCC(=O)Nc1cccc(NC(=O)c2ccccc2Br)c1
permeability Pe: 190 10-6 cm/s

Cc1ccc(-n2c(N)c(C#N)c(-c3ccccc3)c(C#N)c2=O)cc1
permeability Pe: 67 10-6 cm/s

COc1ccc(Sc2ccc(NC(=O)c3ccccc3Cl)cc2C#N)cc1
permeability Pe (with 20% ACN): 487 10-6 cm/s

CN1CSC(=S)N(C)C1
permeability Pe: 18 10-6 cm/s

CCc1nnc(NC(=O)c2ccc(NS(=O)(=O)c3ccccc3)cc2)s1
permeability Pe: 163 10-6 cm/s

O=S1(=O)Nc2c(ccc3cccnc23)-c2ccccc21
permeability Pe: 75 10-6 cm/s

Cc1ccc(C(=O)n2c3ccccc3c3ccccc32)cc1
permeability Pe (with 20% ACN): 352 10-6 cm/s

Cn1cnc([N+](=O)[O-])c1Sc1ncnc2nc[nH]c12
permeability Pe: 3 10-6 cm/s (inactive)

COc1ccc(C2CC(c3ccccc3)=NN2c2ccc(S(N)(=O)=O)cc2)cc1 (stereo not drawn)
permeability Pe: 278 10-6 cm/s

Cc1cc2c(s1)c1cnn(Cc3ccccc3F)c(=O)c1n2C
permeability Pe: 913 10-6 cm/s

CC1CCCN(C(C(=O)Nc2ccc3c(c2)OCCO3)c2ccccc2)C1 (stereo not drawn)
permeability Pe: 2010 10-6 cm/s

CCN1CCN(c2nc3ccccc3nc2C(C#N)C(=O)OC2CCCCC2)CC1 (stereo not drawn)
permeability Pe: 2130 10-6 cm/s

CCCn1ncc(CN2CCCC(C(=O)c3cccc(OC(C)C)c3)C2)c1C (stereo not drawn)
permeability Pe: 1310 10-6 cm/s

c1ccc2c(Nc3nnc(-c4ccncc4)s3)cccc2c1
permeability Pe: 211 10-6 cm/s

O=C(COC(=O)C12CC3CC(CC(C3)C1)C2)NCc1ccco1
permeability Pe: 195 10-6 cm/s

Cc1cc(C)n(-c2nc(NCCCO)c3c4c(sc3n2)CCCC4)n1
permeability Pe: 1130 10-6 cm/s

COc1cc(NC(=O)c2cc(C3CC3)on2)c(OC)cc1Cl
permeability Pe: 720 10-6 cm/s

Cc1cc(C)nc(-n2nc(C)c(Sc3ccc(F)cc3)c2N)n1
permeability Pe: 1020 10-6 cm/s

COc1ccc(C2c3c(ncn(CCN4CCOCC4)c3=N)Oc3ccc4ccccc4c32)cc1OC (stereo not drawn)
permeability Pe: 1440 10-6 cm/s

O=S(=O)(NC1CCCCC1N1CCOCC1)c1ccc(Cl)cc1 (stereo not drawn)
permeability Pe: 815 10-6 cm/s

Oc1cc(O)cc(/C=C/c2ccc(O)c(O)c2)c1
permeability Pe: 1.2 10-6 cm/s (inactive)

Source: PubChem BioAssay AID624339 (Sanford-Burnham Center for Chemical Genomics, 2012)
